Data: patent publication US20240108006A1, “PESTICIDALLY ACTIVE HETEROAROMATIC COMPOUNDS” (SYNGENTA CROP PROTECTION AG, priority 2021, published 2024)

Key:
Format in all cases: in vivo
[1] = test system: Plutella xylostella; experiment: Example B8: Plutella xylostella (diamond back moth), artificial diet 24-well, eggs; conditions: 192 h, application rate of 200 ppm, 8 days after infestation, read-out: effect in at least one of the two categories (mortality or growth inhibition)
Procedure, shortened: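 Artificial diet in 24-well plates treated with aqueous dilutions of DMSO stock (10,000 ppm stock) and dried, then infested with Plutella eggs. Mortality and growth inhibition scored versus untreated samples 8 days after infestation.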

[2] = test system: Spodoptera littoralis; experiment: Example B9: Spodoptera littoralis (Egyptian cotton leaf worm), cotton leaf discs, L1 larvae; conditions: foliar, 72 h, application rate of 200 ppm, 3 days after infestation, read-out: control in at least one of the three categories (mortality, anti-feedant effect, or growth inhibition)
Procedure: Example B9: Spodoptera littoralis (Egyptian Cotton Leaf Worm)
Cotton leaf discs were placed onto agar in 24-well microtiter plates and sprayed with aqueous test solutions prepared from 10,000 ppm DMSO stock solutions. After drying the leaf discs were infested with five L1 larvae. The samples were assessed for mortality, anti-feeding effect, and growth inhibition in comparison to untreated samples 3 days after infestation. Control of Spodoptera littoralis by a test sample is given when at least one of the categories mortality, anti-feedant effect, and growth inhibition is higher than the untreated sample.

[3] = test system: Chilo suppressalis; experiment: Example B1: Chilo suppressalis (striped rice stemborer), artificial diet, L2 larvae; conditions: 144 h, application rate of 200 ppm, 6 days after infestation, read-out: control in at least one of the three categories (mortality, anti-feedant effect, or growth inhibition)
Procedure, shortened: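 Artificial diet was treated with aqueous test solutions made from 10,000 ppm DMSO stocks, dried, then infested with L2 larvae (6-8 per well). Mortality, anti-feeding effect and growth inhibition were scored against untreated samples 6 days after infestation, and control was counted when any category exceeded untreated.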

C[C@H](NC(=O)Nc1cc(Cl)c(Cl)cc1F)c1ncnn1-c1ncccn1 [Example P118, 1-(4,5-dichloro-2-fluoro-phenyl)-3-[(1S)-1-(2-pyrimidin-2-yl-1,2,4-triazol-3-yl)ethyl]urea]
≥ 80%: percent effect (mortality or growth inhibition) at 200 ppm [1] | percent control (mortality, anti-feedant effect or growth inhibition) at 200 ppm [2] | percent control (mortality, anti-feedant effect or growth inhibition) at 200 ppm [3]

C[C@H](NC(=S)Nc1ccc(C(F)(F)F)cc1Cl)c1ncnn1-c1ncccn1 [Example P129, 1-[2-chloro-4-(trifluoromethyl)phenyl]-3-[(1S)-1-(2-pyrimidin-2-yl-1,2,4-triazol-3-yl)ethyl]thiourea]
≥ 80%: percent effect (mortality or growth inhibition) at 200 ppm [1] | percent control (mortality, anti-feedant effect or growth inhibition) at 200 ppm [2] | percent control (mortality, anti-feedant effect or growth inhibition) at 200 ppm [3]

C[C@H](NC(=O)Nc1cc(C(F)(F)F)c(Cl)cc1Cl)c1ncnn1-c1ccc(C#N)cn1 [Example P173, 1-[(1S)-1-[2-(5-cyano-2-pyridyl)-1,2,4-triazol-3-yl]ethyl]-3-[2,4-dichloro-5-(trifluoromethyl)phenyl]urea]
≥ 80%: percent effect (mortality or growth inhibition) at 200 ppm [1] | percent control (mortality, anti-feedant effect or growth inhibition) at 200 ppm [2] | percent control (mortality, anti-feedant effect or growth inhibition) at 200 ppm [3]

C[C@H](NC(=O)Nc1cc(O)c(Cl)cc1Cl)c1ncnn1-c1ncccn1 [Example P237, 1-(2,4-dichloro-5-hydroxy-phenyl)-3-[(1S)-1-(2-pyrimidin-2-yl-1,2,4-triazol-3-yl)ethyl]urea]
≥ 80%: percent effect (mortality or growth inhibition) at 200 ppm [1] | percent control (mortality, anti-feedant effect or growth inhibition) at 200 ppm [2] | percent control (mortality, anti-feedant effect or growth inhibition) at 200 ppm [3]

CC(NC(=O)Nc1cc(C(F)(F)F)c(Cl)cc1Br)c1nccnc1-c1ncccn1 (stereo not drawn) [Example P240, 1-[2-bromo-4-chloro-5-(trifluoromethyl)phenyl]-3-[1-(3-pyrimidin-2-ylpyrazin-2-yl)ethyl]urea]
≥ 80%: percent effect (mortality or growth inhibition) at 200 ppm [1] | percent control (mortality, anti-feedant effect or growth inhibition) at 200 ppm [2] | percent control (mortality, anti-feedant effect or growth inhibition) at 200 ppm [3]

CC(NC(=O)Nc1ccc(C(F)(F)F)cc1I)c1nccnc1-c1ncccn1 (stereo not drawn) [Example P243, 1-[2-iodo-4-(trifluoromethyl)phenyl]-3-[1-(3-pyrimidin-2-ylpyrazin-2-yl)ethyl]urea]
≥ 80%: percent effect (mortality or growth inhibition) at 200 ppm [1] | percent control (mortality, anti-feedant effect or growth inhibition) at 200 ppm [2] | percent control (mortality, anti-feedant effect or growth inhibition) at 200 ppm [3]

C[C@H](NC(=O)Nc1ccc(Br)cc1OC(F)F)c1nccnc1-c1ccc(C#N)cn1 [Example P247, 1-[4-bromo-2-(difluoromethoxy)phenyl]-3-[(1S)-1-[3-(5-cyano-2-pyridyl)pyrazin-2-yl]ethyl]urea]
≥ 80%: percent effect (mortality or growth inhibition) at 200 ppm [1] | percent control (mortality, anti-feedant effect or growth inhibition) at 200 ppm [2] | percent control (mortality, anti-feedant effect or growth inhibition) at 200 ppm [3]

C[C@H](NC(=O)Nc1cnc(Br)cc1Br)c1nccnc1-c1ccc(C#N)cn1 [Example P248, 1-[(1S)-1-[3-(5-cyano-2-pyridyl)pyrazin-2-yl]ethyl]-3-(4,6-dibromo-3-pyridyl)urea]
≥ 80%: percent effect (mortality or growth inhibition) at 200 ppm [1] | percent control (mortality, anti-feedant effect or growth inhibition) at 200 ppm [2] | percent control (mortality, anti-feedant effect or growth inhibition) at 200 ppm [3]

C[C@H](NC(=O)Nc1ccc(C(F)(F)F)cc1I)c1nccnc1-c1ccc(C#N)cn1 [Example P249, 1-[(1S)-1-[3-(5-cyano-2-pyridyl)pyrazin-2-yl]ethyl]-3-[2-iodo-4-(trifluoromethyl)phenyl]urea]
≥ 80%: percent effect (mortality or growth inhibition) at 200 ppm [1] | percent control (mortality, anti-feedant effect or growth inhibition) at 200 ppm [2] | percent control (mortality, anti-feedant effect or growth inhibition) at 200 ppm [3]

C[C@H](NC(=O)Nc1cc(OC(F)(F)C(F)F)c(Cl)cc1Cl)c1ncnn1-c1ccc(C#N)cn1 [Example P251, 1-[(1S)-1-[2-(5-cyano-2-pyridyl)-1,2,4-triazol-3-yl]ethyl]-3-[2,4-dichloro-5-(1,1,2,2-tetrafluoroethoxy)phenyl]urea]
≥ 80%: percent effect (mortality or growth inhibition) at 200 ppm [1] | percent control (mortality, anti-feedant effect or growth inhibition) at 200 ppm [2] | percent control (mortality, anti-feedant effect or growth inhibition) at 200 ppm [3]

C[C@H](NC(=O)Nc1cc(C(F)(F)F)c(Cl)cc1Br)c1ncnn1-c1ccc(C#N)cn1 [Example P253, 1-[2-bromo-4-chloro-5-(trifluoromethyl)phenyl]-3-[(1S)-1-[2-(5-cyano-2-pyridyl)-1,2,4-triazol-3-yl]ethyl]urea]
≥ 80%: percent effect (mortality or growth inhibition) at 200 ppm [1] | percent control (mortality, anti-feedant effect or growth inhibition) at 200 ppm [2] | percent control (mortality, anti-feedant effect or growth inhibition) at 200 ppm [3]

C[C@H](NC(=O)Nc1ccc(C(F)(F)F)cc1I)c1ncnn1-c1ccc(C#N)cn1 [Example P256, 1-[(1S)-1-[2-(5-cyano-2-pyridyl)-1,2,4-triazol-3-yl]ethyl]-3-[2-iodo-4-(trifluoromethyl)phenyl]urea]
≥ 80%: percent effect (mortality or growth inhibition) at 200 ppm [1] | percent control (mortality, anti-feedant effect or growth inhibition) at 200 ppm [2] | percent control (mortality, anti-feedant effect or growth inhibition) at 200 ppm [3]

CC(NC(=O)Nc1ccc(C(F)(F)F)cc1I)c1nccnc1-n1nccn1 (stereo not drawn) [Example P263, 1-[2-iodo-4-(trifluoromethyl)phenyl]-3-[1-[3-(triazol-2-yl)pyrazin-2-yl]ethyl]urea]
≥ 80%: percent effect (mortality or growth inhibition) at 200 ppm [1] | percent control (mortality, anti-feedant effect or growth inhibition) at 200 ppm [2] | percent control (mortality, anti-feedant effect or growth inhibition) at 200 ppm [3]

CC(NC(=O)Nc1cnc(C(F)(F)F)cc1Cl)c1nccnc1-n1nccn1 (stereo not drawn) [Example P264, 1-[4-chloro-6-(trifluoromethyl)-3-pyridyl]-3-[1-[3-(triazol-2-yl)pyrazin-2-yl]ethyl]urea]
≥ 80%: percent effect (mortality or growth inhibition) at 200 ppm [1] | percent control (mortality, anti-feedant effect or growth inhibition) at 200 ppm [2] | percent control (mortality, anti-feedant effect or growth inhibition) at 200 ppm [3]

COc1cc(NC(=O)N[C@@H](C)c2ncnn2-c2ncccn2)c(Cl)cc1Cl [Example P265, 1-(2,4-dichloro-5-methoxy-phenyl)-3-[(1S)-1-(2-pyrimidin-2-yl-1,2,4-triazol-3-yl)ethyl]urea]
≥ 80%: percent effect (mortality or growth inhibition) at 200 ppm [1] | percent control (mortality, anti-feedant effect or growth inhibition) at 200 ppm [2] | percent control (mortality, anti-feedant effect or growth inhibition) at 200 ppm [3]

C[C@H](NC(=O)Nc1cnc(Cl)cc1I)c1ncnn1-c1ncccn1 [Example P271, 1-(6-chloro-4-iodo-3-pyridyl)-3-[(1S)-1-(2-pyrimidin-2-yl-1,2,4-triazol-3-yl)ethyl]urea]
≥ 80%: percent effect (mortality or growth inhibition) at 200 ppm [1] | percent control (mortality, anti-feedant effect or growth inhibition) at 200 ppm [2] | percent control (mortality, anti-feedant effect or growth inhibition) at 200 ppm [3]

C[C@H](NC(=O)Nc1cc(Br)c(Cl)cc1F)c1ncnn1-c1ncccn1 [Example P300, 1-(5-bromo-4-chloro-2-fluoro-phenyl)-3-[(1S)-1-(2-pyrimidin-2-yl-1,2,4-triazol-3-yl)ethyl]urea]
≥ 80%: percent effect (mortality or growth inhibition) at 200 ppm [1] | percent control (mortality, anti-feedant effect or growth inhibition) at 200 ppm [2] | percent control (mortality, anti-feedant effect or growth inhibition) at 200 ppm [3]

C[C@H](NC(=O)Nc1cc(F)c(Br)cc1Cl)c1ncnn1-c1ncccn1 [Example P314, 1-(4-bromo-2-chloro-5-fluoro-phenyl)-3-[(1S)-1-(2-pyrimidin-2-yl-1,2,4-triazol-3-yl)ethyl]urea]
≥ 80%: percent effect (mortality or growth inhibition) at 200 ppm [1] | percent control (mortality, anti-feedant effect or growth inhibition) at 200 ppm [2] | percent control (mortality, anti-feedant effect or growth inhibition) at 200 ppm [3]

COc1cc(NC(=O)N[C@@H](C)c2ncnn2-c2ncccn2)c(Cl)cc1Br [Example P351, 1-(4-bromo-2-chloro-5-methoxy-phenyl)-3-[(1S)-1-(2-pyrimidin-2-yl-1,2,4-triazol-3-yl)ethyl]urea]
≥ 80%: percent effect (mortality or growth inhibition) at 200 ppm [1] | percent control (mortality, anti-feedant effect or growth inhibition) at 200 ppm [2] | percent control (mortality, anti-feedant effect or growth inhibition) at 200 ppm [3]

Cc1cc(Br)c(F)cc1NC(=O)N[C@@H](C)c1ncnn1-c1ncccn1 [Example P367, 1-(4-bromo-5-fluoro-2-methyl-phenyl)-3-[(1S)-1-(2-pyrimidin-2-yl-1,2,4-triazol-3-yl)ethyl]urea]
≥ 80%: percent effect (mortality or growth inhibition) at 200 ppm [1] | percent control (mortality, anti-feedant effect or growth inhibition) at 200 ppm [2] | percent control (mortality, anti-feedant effect or growth inhibition) at 200 ppm [3]

C[C@H](NC(=O)Nc1cc(Br)c(F)cc1Cl)c1ncnn1-c1ncccn1 [Example P388, 1-(5-bromo-2-chloro-4-fluoro-phenyl)-3-[(1S)-1-(2-pyrimidin-2-yl-1,2,4-triazol-3-yl)ethyl]urea]
≥ 80%: percent effect (mortality or growth inhibition) at 200 ppm [1] | percent control (mortality, anti-feedant effect or growth inhibition) at 200 ppm [2] | percent control (mortality, anti-feedant effect or growth inhibition) at 200 ppm [3]

CNC(=O)c1cnc(-n2ncnc2[C@H](C)NC(=O)Nc2cc(C(F)(F)F)c(Cl)cc2Cl)s1 [Example P395, 2-[5-[(1S)-1-[[2,4-dichloro-5-(trifluoromethyl)phenyl]carbamoyl-amino]ethyl]-1,2,4-triazol-1-yl]-N-methyl-thiazole-5-carboxamide]
≥ 80%: percent effect (mortality or growth inhibition) at 200 ppm [1] | percent control (mortality, anti-feedant effect or growth inhibition) at 200 ppm [2] | percent control (mortality, anti-feedant effect or growth inhibition) at 200 ppm [3]
